{"source": "patent US12606552B2", "about": "“Bifunctional compound, preparation method therefor, and use thereof” (SUZHOU KINTOR PHARMACEUTICALS, INC., priority 2020, dated 2026)", "key": {"[1]": {"tested_on": "androgenetic alopecia model in C57BL/6J mice", "experiment": "Hair regeneration effects on androgenic alopecia C57 mouse model (DHT-induced)", "type": "in vivo, C57BL/6N mice", "settings": "AVER n = 6, score 0-5", "excerpt": "Activity Assay Example 8: Hair Regeneration Effects of Compounds on Androgenic Alopecia C57 Mouse Model\nThe purpose of this study was to compare the effect of the compounds prepared by the present invention as AR protein degraders on hair regrowth in an androgenetic alopecia model in C57BL/6J mice by transdermal application route of administration, and to provide data to support subsequent clinical trials.\n2. Experimental Principle\nName of test compound I: dihydrotestosterone DHT; name of test compound II: compound A46 of the present invention; name of test compound III: minoxidil.\n4. Experimental animals: strain: C57BL/6N mice; age: 6-7 weeks; gender: male; number of animals: 70 (10 for later use); rearing environment: specific pathogen-free (SPF).\n70 mice were deeply anesthetized, and the hair on the back of the mice was removed with an animal shaver, then the depilatory cream (Veet https://item.jd.com/6291245.html) was smeared evenly on the surface of the mice skin, and left 7-10 minutes. Then the hair was gently scraped off with a hair removal scraper against the direction of the hair, and finally the residual hair removal cream on the skin surface was fully washed with water to avoid burning the mice skin.\nThis experiment was divided into 6 groups, and the DHT administration started on the day of hair removal, A46 is administered on day 2 after hair removal and is counted as day 1 (the day of hair removal is counted as day 0).\n5.3 Test Compound Preparation Method\n5.4 Observation and Measurement Indicators • 1) Body weight/g: From the first day of administration, body weight was weighed and recorded twice a week. • 2) Hair regeneration (anagen) score (0 points: no darkening of skin color in all areas; 1 point: darkening of gray skin color areas; 2 points: visible short hair; 3 points: thin hair; 4 points: thick hair; 5 points: full hair growth).\nAll mice were photographed on day 1 after hair removal, and then photographed and scored daily from day 4 until the end of the experiment. • 3) At the end of the experiment, skin and blood collection operations were performed as needed. 5.5 Criteria for Drug Withdrawal and Experiment Termination\nData are presented as average±standard error (AVE±SEM). One-way multi-level analysis of variance was used for statistics. The comparison between each drug group and the model group was performed by Stundent's t-test or rank sum test, and the p value was calculated. p<0.05 means there is a significant difference between the two groups, p<0.01 means there is a extremely significant difference between the two groups."}, "[2]": {"tested_on": "flank sebaceous glands of golden hamster", "experiment": "In vivo efficacy on acne in female golden hamsters (growth of sebaceous plaques induced by testosterone propionate)", "settings": "skin smear once a day, 21 days", "excerpt": "Activity Assay Example 7: In Vivo Efficacy of Compounds on Acne in Female Golden Hamsters\n1. Test object: The flank sebaceous glands of golden hamster are androgen-dependent organs, and testosterone propionate (male hormone) promotes the enlargement of sebaceous glands. This experiment is mainly to study the inhibitory effect of CB-03-01 (positive drug), Flutamide (positive drug) and the compound on sebaceous gland enlargement in female golden hamster acne model (androgen dependence), to further observe the in vivo drug efficacy of the compound, to provide the basis for clinical trials of androgen-induced acne symptoms.\nAndrogen (Testosterone Propionate-TP); CB-03-01 (Clascoterone, CAS No. 19608-29-8); □ Flutamide (Flutamide, CAS No. 13311-84-7); compound A46 of the present invention.\n2.2 Experimental Animals, See Table 4 for Details\n2.3 Administration Vehicle: Acetone. 3. Experimental Design\nIn this experiment, from 72 female golden hamsters, according to the size and body weight of sebaceous glands, golden hamsters were evenly distributed to each group, 6 mice per group, a total of 7 groups, and they were administered continuously for 21 days.\nAccording to the protocol in the table, […] of drug was administered each time, it was evenly smeared on the sebaceous glands, and administered once a day.\nAnimal grouping and status observation: Before grouping, the body weight was weighed, and the sebaceous glands on both sides were shaved for the observation of the size of sebaceous glands. Animals were observed twice a day in the morning and afternoon during the administration period. On the 21st day after administration, the size of sebaceous glands and the body weight of animals were observed and recorded.\nThe size of the sebaceous glands is expressed by the area, and the vernier caliper recorded its long side (a) and short side (b), and the area of the sebaceous glands (S) is obtained from the formula for calculating the area of a rectangle. In model group and administration group, ΔS=S−S(vehicle). Growth inhibition rate (%)=(ΔS(acetone testosterone group)−ΔS (administration group))/ΔS(acetone testosterone group)*100%."}}}
{"smiles": "Cc1ncsc1-c1ccc(CNC(=O)[C@@H]2C[C@@H](O)CN2C(=O)[C@@H](NC(=O)COCCCCOc2ccc(-c3ccc(N4C(=S)N(c5ccc(C#N)c(C(F)(F)F)c5F)C(=O)C4(C)C)cn3)cc2)C(C)(C)C)cc1", "note": "[Compound A46]", "values": [{"measurement": "Hair regeneration score", "setting": "[1]; 0.5% skin smear BID + DHT 30 mpk, 0 day", "value": 0.00}, {"measurement": "Hair regeneration score", "setting": "[1]; 0.5% skin smear BID + DHT 30 mpk, 3 days", "value": 0.00}, {"measurement": "Hair regeneration score", "setting": "[1]; 0.5% skin smear BID + DHT 30 mpk, 5 days", "value": 0.00}, {"measurement": "Hair regeneration score", "setting": "[1]; 0.5% skin smear BID + DHT 30 mpk, 7 days", "value": 0.00}, {"measurement": "Hair regeneration score", "setting": "[1]; 0.5% skin smear BID + DHT 30 mpk, 10 days", "value": 0.33}, {"measurement": "Hair regeneration score", "setting": "[1]; 0.5% skin smear BID + DHT 30 mpk, 12 days", "value": 0.50}, {"measurement": "Hair regeneration score", "setting": "[1]; 0.5% skin smear BID + DHT 30 mpk, 14 days", "value": 1.00}, {"measurement": "Hair regeneration score", "setting": "[1]; 0.5% skin smear BID + DHT 30 mpk, 17 days", "value": 1.67}, {"measurement": "Hair regeneration score", "setting": "[1]; 1% skin smear BID + DHT 30 mpk, 0 day", "value": 0.00}, {"measurement": "Hair regeneration score", "setting": "[1]; 1% skin smear BID + DHT 30 mpk, 3 days", "value": 0.00}, {"measurement": "Hair regeneration score", "setting": "[1]; 1% skin smear BID + DHT 30 mpk, 5 days", "value": 0.00}, {"measurement": "Hair regeneration score", "setting": "[1]; 1% skin smear BID + DHT 30 mpk, 7 days", "value": 0.00}, {"measurement": "Hair regeneration score", "setting": "[1]; 1% skin smear BID + DHT 30 mpk, 10 days", "value": 0.33}, {"measurement": "Hair regeneration score", "setting": "[1]; 1% skin smear BID + DHT 30 mpk, 12 days", "value": 0.83}, {"measurement": "Hair regeneration score", "setting": "[1]; 1% skin smear BID + DHT 30 mpk, 14 days", "value": 1.50}, {"measurement": "Hair regeneration score", "setting": "[1]; 1% skin smear BID + DHT 30 mpk, 17 days", "value": 2.00}, {"measurement": "Hair regeneration score", "setting": "[1]; 3% skin smear BID + DHT 30 mpk, 0 day", "value": 0.00}, {"measurement": "Hair regeneration score", "setting": "[1]; 3% skin smear BID + DHT 30 mpk, 3 days", "value": 0.00}, {"measurement": "Hair regeneration score", "setting": "[1]; 3% skin smear BID + DHT 30 mpk, 5 days", "value": 0.00}, {"measurement": "Hair regeneration score", "setting": "[1]; 3% skin smear BID + DHT 30 mpk, 7 days", "value": 0.00}, {"measurement": "Hair regeneration score", "setting": "[1]; 3% skin smear BID + DHT 30 mpk, 10 days", "value": 0.50}, {"measurement": "Hair regeneration score", "setting": "[1]; 3% skin smear BID + DHT 30 mpk, 12 days", "value": 1.17}, {"measurement": "Hair regeneration score", "setting": "[1]; 3% skin smear BID + DHT 30 mpk, 14 days", "value": 1.83}, {"measurement": "Hair regeneration score", "setting": "[1]; 3% skin smear BID + DHT 30 mpk, 17 days", "value": 2.83}, {"measurement": "The inhibition rate of the growth of sebaceous plaques (%)", "setting": "[2]; 100 μg (0.4%) + testosterone propionate 12 μg", "value": 19.24, "unit": "%"}, {"measurement": "The inhibition rate of the growth of sebaceous plaques (%)", "setting": "[2]; 200 μg (0.8%) + testosterone propionate 12 μg", "value": 35.20, "unit": "%"}, {"measurement": "The inhibition rate of the growth of sebaceous plaques (%)", "setting": "[2]; 400 μg (1.6%) + testosterone propionate 12 μg", "value": 49.54, "unit": "%"}, {"measurement": "The inhibition rate of the growth of sebaceous plaques (%)", "setting": "[2]; 800 μg (3.2%) + testosterone propionate 12 μg", "value": 51.61, "unit": "%"}]}
